Reference: US20230158159A1, “CHIMERIC DEGRADERS OF CYCLIN-DEPENDENT KINASE 9 AND USES THEREOF” (Massachusetts Institute of Technology, priority 2020, published 2023)

Experiments:
[1] = system: Cyclin T; experiment: Cyclin T protein levels, Western blot, MOLT-4 cells; type: cell-based, human; details: MOLT-4 leukemia cells, 10 μM, 8 h treatment time
Procedure: Compounds 4 and 5 (KI-ARv-03-D09 and -D10) incorporate such bi-aryl extensions and were therefore tested for their ability to degrade CDK9 and/or its associated cyclin T. In addition, the corresponding molecules KB-0742-D01 and -D02 which comprise the […] warhead and bi-aryl extensions were evaluated.

[2] = biological target: T1, CDK9 (Homo sapiens, UniProt P50750); experiment: CDK9 degradation assay, Western blot, MOLT4 cells; type: cell-based; design: endogenous in cells; host or cells: MOLT4 (MOLT-4); details: for CDK9 protein levels: MOLT-4 leukemia cells, 8 h treatment time; for reduction of CDK9 protein levels: 1 μM, compared to DMSO and parent compound KI-ARv3; for concentration at which the concentration dependent decrease of CDK9 levels starts: dose range 10 nM-10 μM
Procedure: Efficiencies were measured by monitoring their impact on CDK9 itself as well as downstream targets of CDK9 phosphorylation such as AR and Pol II.

[3] = biological target: T1, CDK9; experiment: CDK9 degradation assay, Western blot, MV-4-11 cells; type: cell-based; design: endogenous in cells
Procedure: (§1) FIGS. 8A-C show evaluation of KI-ARv3-D07 and -08 in MV-4-11 (FIG. 8A) and Rh-30 (FIG. 8C) cells as well as side by side comparison of both cell lines (FIG. 8B). […] FIG. 8B treatment time is 8 hr.
(§2) The effect of KI-ARv3-D07 and -08 on impacting CDK9 levels in the additional cell lineages MV-4-11 (leukemia cell line) and the Rh-30 (rhabdomyosarcoma cell line) at 6 h and 8 h treatment times (FIG. 8) was also evaluated. […] In Rh-30 no changes in CDK9 levels were detected at any compound concentration (10 nM, 100 nM, 500 nM, 1 μM, 10 μM) at either 6 h or 8 h treatment time (FIGS. 8B and 8C).

[4] = biological target: T1, CDK9; experiment: CDK9 degradation assay, Western blot, 22Rv1 cells; type: cell-based; design: endogenous in cells; host or cells: 22Rv1; details: for reduction of CDK9 levels / degradation of CDK9: 10 nM-10 μM
Procedure: (§3) Compounds were evaluated in ARv7 positive 22Rv1 cells in order to assess their potential to degrade CDK9 and its associated downstream phosphorylation targets Pol II as well as AR and related splice variants (FIGS. 6 and 7).

[5] = biological target: T1, CDK9; experiment: CDK9 degradation assay, Western blot, Rh-30 cells; type: cell-based; design: endogenous in cells; host or cells: 22Rv1; details: for changes in CDK9 levels: Rh-30 cells, 10 nM, 100 nM, 500 nM, 1 μM, 10 μM, 6 h or 8 h
Procedure: as §1
FIGS. 9A-D show evaluation of KI-ARv3-D11 and -D18 in 22Rv1 (FIG. 9A, 16 h treatment time), MOLT-4 (FIG. 9B, 7 h treatment time), and Rh-30 (FIGS. 9C and 9D, 16 h treatment time) cell lines.
as §2

[6] = system: Pol II; experiment: Pol II protein levels, Western blot, 22Rv1 cells; type: cell-based; details: FIG. 7 (24 hours, 10 nM-10 μM)
Procedure: as §3

[7] = system: AR; experiment: AR and AR splice variant protein levels, Western blot, 22Rv1 cells; type: cell-based; details: FIG. 7 (24 hours, 10 nM-10 μM)
Procedure: as §3

[8] = MOLT4 cells, 1 μM and 5 μM, 6 hours, compared to DMSO
[9] = MOLT4 cells, low dose 1 μM, 24 hours

T1 sequence (P50750 whole entry): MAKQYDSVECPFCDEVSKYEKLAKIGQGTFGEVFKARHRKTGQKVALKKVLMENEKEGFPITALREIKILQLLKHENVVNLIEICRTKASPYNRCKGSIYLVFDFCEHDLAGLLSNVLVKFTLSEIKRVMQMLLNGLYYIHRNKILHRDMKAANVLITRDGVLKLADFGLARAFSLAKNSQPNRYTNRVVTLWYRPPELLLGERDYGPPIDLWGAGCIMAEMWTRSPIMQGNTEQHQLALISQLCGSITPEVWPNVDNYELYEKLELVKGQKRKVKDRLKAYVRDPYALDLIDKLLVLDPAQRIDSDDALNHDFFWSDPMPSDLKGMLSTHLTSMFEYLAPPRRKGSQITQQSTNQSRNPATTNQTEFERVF
T1 sequence (O60563 whole entry partner): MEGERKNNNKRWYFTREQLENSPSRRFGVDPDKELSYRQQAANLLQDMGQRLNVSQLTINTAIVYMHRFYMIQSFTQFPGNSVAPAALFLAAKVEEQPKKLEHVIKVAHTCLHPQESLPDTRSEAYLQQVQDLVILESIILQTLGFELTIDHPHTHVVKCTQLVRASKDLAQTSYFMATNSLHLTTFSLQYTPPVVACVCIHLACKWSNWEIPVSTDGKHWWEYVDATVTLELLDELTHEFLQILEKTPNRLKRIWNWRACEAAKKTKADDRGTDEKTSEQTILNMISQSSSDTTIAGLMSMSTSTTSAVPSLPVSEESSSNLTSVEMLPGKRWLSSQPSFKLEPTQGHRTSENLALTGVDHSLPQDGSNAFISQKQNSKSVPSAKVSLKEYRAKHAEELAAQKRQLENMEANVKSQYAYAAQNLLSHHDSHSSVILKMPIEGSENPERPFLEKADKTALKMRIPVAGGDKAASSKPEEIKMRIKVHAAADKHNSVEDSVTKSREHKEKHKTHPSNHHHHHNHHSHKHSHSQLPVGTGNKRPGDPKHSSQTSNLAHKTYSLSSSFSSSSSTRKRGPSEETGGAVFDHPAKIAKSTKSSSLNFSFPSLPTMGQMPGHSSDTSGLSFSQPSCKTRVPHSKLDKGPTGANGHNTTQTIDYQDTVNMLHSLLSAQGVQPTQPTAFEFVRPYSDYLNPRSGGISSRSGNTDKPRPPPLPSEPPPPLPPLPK

Row | Compound | Cyclin T protein levels [1] | CDK9 protein levels ([2]; 10 μM) | reduction of CDK9 levels ([4]; 6 hours) | degradation of CDK9 ([4]; 24 hours) | changes in CDK9 levels [5] | CDK9 degradation [2, 8] | reduction of CDK9 protein levels ([2]; MOLT4 cells, 6 hours) | concentration at which the concentration dependent decrease of CDK9 levels starts ([2]; MOLT4 cells, 6 hours) [nM] | CDK9 degradation [2, 9] | also measured
1 | CCC(CC)c1cc(N[C@H]2CC[C@H](NC(=O)c3ccc(-c4ccc(CN)cc4)cc3)C2)n2nccc2n1 [KB-0742-D02, 4′-(aminomethyl)-N-((1S,3S)-3-((5-(pentan-3-yl)pyrazolo[1,5-a]pyrimidin-7-yl)amino)cyclopentyl)-[1,1′-biphenyl]-4-carboxamide] | reduction in protein levels | reduction in protein levels | – | – | – | – | – | – | – | –
2 | CCCc1cc(N[C@@H]2CC[C@@H](NC(=O)CCCCCCCCCNc3cccc4c3C(=O)N(C3CCC(=O)NC3=O)C4=O)C2)n2nccc2n1 (stereo partly drawn) [KI-ARv3-D07, 10-((2-(2,6-Dioxopiperidin-3-yl)-1,3-dioxoisoindolin-4-yl)amino)-N-((1R,3R)-3-((5-propylpyrazolo[1,5-a]pyrimidin-7-yl)amino)cyclopentyl)decanamide] | – | – | no significant reduction | not able to facilitate degradation of CDK9 | no changes | CDK9 degradation was observed | approximately 80% | 100 | reduced | changes in CDK9 levels ([3]; 6 h and 8 h, FIGS. 8A and 8B): did not lead to significant changes; degradation of CDK9 ([2]; MOLT4 cells, 24 hours, 10 μM): not demonstrated; hook effect on CDK9 degradation ([2]; MOLT4 cells, high dose 5 μM, 24 hours): hook effect
3 | CCCc1cc(N[C@@H]2CC[C@@H](NC(=O)c3ccc(-c4ccc(CNc5cccc6c5C(=O)N(C5CCC(=O)NC5=O)C6=O)cc4)cc3)C2)n2nccc2n1 (stereo partly drawn) [KI-ARv3-D08, 4′-(((2-(2,6-dioxopiperidin-3-yl)-1,3-dioxoisoindolin-4-yl)amino)methyl)-N-((1R,3R)-3-((5-propylpyrazolo[1,5-a]pyrimidin-7-yl)amino)cyclopentyl)-[1,1′-biphenyl]-4-carboxamide] | – | – | subtle reduction | significant CDK9 degradation | no changes | CDK9 degradation was observed | approximately 80% | 100 | reduced | global Pol II protein levels [6]: no observed effect; concentration at which reduction of CDK9 levels starts ([3]; 6 h and 8 h treatment time): 350 nM; reduction of CDK9 levels ([3]; 6 h and 8 h treatment time): approximately 60%; rescue experiments using proteasome inhibitor MG132 ([3]; FIG. 8A): reversible and proteasome dependent; global AR protein levels [7]: no observed effect; concentration at which reduction in CDK9 protein levels starts ([4]; 6 hours): 500 nM; concentration at which significant CDK9 degradation starts ([4]; 24 hours): 100 nM; CDK9 degradation ([2]; MOLT4 cells, 24 hours, across the whole range 10 nM-10 μM): approx. 80%
4 | CCCc1cc(NC2CCC(NC(=O)c3ccc(-c4ccc(CN)cc4)cc3)C2)n2nccc2n1 (stereo not drawn) [KI-ARv3-D10, 4′-(aminomethyl)-N-(3-((5-propylpyrazolo[1,5-a]pyrimidin-7-yl)amino)cyclopentyl)-[1,1′-biphenyl]-4-carboxamide] | reduction in protein levels | reduction in protein levels | – | – | – | – | – | – | – | –
5 | CCCc1cc(N[C@@H]2CC[C@@H](NC(=O)c3ccc(-c4ccc(CN[C@H](C(=O)N5C[C@H](O)C[C@H]5C(=O)NCc5ccc(-c6scnc6C)cc5)C(C)(C)C)cc4)cc3)C2)n2nccc2n1 [KI-ARv3-D18, (2S,4R)-1-((S)-3,3-dimethyl-2-(((4′-(((1R,3R)-3-((5-propylpyrazolo[1,5-a]pyrimidin-7-yl)amino)cyclopentyl)carbamoyl)-[1,1′-biphenyl]-4-yl)methyl)amino)butanoyl)-4-hydroxy-N-(4-(4-methylthiazol-5-yl)benzyl)pyrrolidine-2-carboxamide] | – | – | – | – | – | – | – | – | – | reduction of CDK9 levels ([5]; 25 nM, FIG. 9D (Rh-30, 16 h treatment time)): approximately 80%
